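These data come from cells grown in 96-well plates and exposed to compound for 48 hours at five concentrations. TGI: concentration producing complete growth inhibition.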
Key:
Assay in all cases: growth of human tumour cells (NCI), 48 h
[1] = tested on: HOP-92 NSCLC
[2] = tested on: CCRF-CEM leukemia
[3] = tested on: MDA-N
[4] = tested on: NCI-H522 lung
[5] = tested on: CAKI-1 renal
[6] = tested on: HCC-2998 colon
[7] = tested on: SNB-19 CNS
[8] = tested on: HOP-62 NSCLC
[9] = tested on: SNB-75 CNS
[10] = tested on: SN12C renal
[11] = tested on: A498 renal
[12] = tested on: BT-549 breast
[13] = tested on: LOX IMVI melanoma
[14] = tested on: SK-OV-3 ovarian
[15] = tested on: RXF 393 renal

SMILES | TGI [1] | TGI [2] | TGI [3] | TGI [4] | TGI [5] | TGI [6] | TGI [7] | TGI [8] | TGI [9] | TGI [10] | TGI [11] | TGI [12] | TGI [13] | TGI [14] | TGI [15]
C#CCN(Cc1ccc2nc(-c3ccccc3)c(Cl)nc2c1)c1ccc(F)cc1 | > 100 µM | > 100 µM | > 100 µM | > 100 µM | > 100 µM | > 100 µM | > 100 µM | > 100 µM | > 100 µM | > 100 µM | > 100 µM | > 100 µM | > 100 µM | – | –
C=C1c2nc3ccccc3n2C=C(c2ccc(OC)cc2)N1c1ccc(OCCN2CCCCC2)cc1 | > 82 µM | 10.1 µM | > 100 µM | > 100 µM | > 100 µM | 33.6 µM | > 100 µM | > 100 µM | > 100 µM | > 100 µM | > 84.5 µM | > 100 µM | > 44 µM | > 100 µM | > 77 µM
COC(=O)c1c(O)c(C#N)c2[nH]c3ccccc3n2c1=O | > 100 µM | > 100 µM | > 100 µM | > 100 µM | > 100 µM | > 100 µM | > 100 µM | > 100 µM | > 100 µM | > 100 µM | > 100 µM | > 100 µM | – | > 100 µM | > 100 µM
Clc1ccc(Cc2nc3ccccc3o2)cc1 | > 100 µM | > 100 µM | > 100 µM | > 100 µM | > 100 µM | > 100 µM | > 100 µM | > 100 µM | 91.2 µM | > 100 µM | – | > 100 µM | > 100 µM | > 100 µM | 97.8 µM
CCCN(CCC)C(=S)Sc1nc(C)nc(N2CCN(c3nc(C)nc(SC(=S)N(CCC)CCC)c3[N+](=O)[O-])CC2)c1[N+](=O)[O-] | 22.4 µM | 8.55 µM | > 100 µM | 3.17 µM | 34.4 µM | 43.6 µM | > 88.3 µM | > 85 µM | > 100 µM | > 39.8 µM | – | 26.9 µM | 2.27 µM | > 100 µM | > 29.5 µM
CSC(=S)CC(O)[C@@H]1CC2c3ccccc3C1c1ccccc12 (stereo partly specified) | 38.8 µM | 10.6 µM | 28.3 µM | 10.9 µM | – | 28.2 µM | 26.7 µM | 38.2 µM | – | 45.2 µM | 37.3 µM | 34.2 µM | 54.6 µM | 28.7 µM | 7.54 µM
COC(=O)C(Cc1ccccc1)NC(=O)CSc1nnc(COc2ccc(Cl)cc2)n1-c1ccccc1 (stereo unspecified) | 76.7 µM | 63.3 µM | 43.7 µM | – | – | 31.8 µM | > 100 µM | 45 µM | 56.1 µM | 48.9 µM | 56.1 µM | 69.6 µM | 28.3 µM | 63 µM | 43 µM
Brc1ccc(C2=NCSC(c3ccc(Br)cc3)=N2)cc1 | > 100 µM | – | 54.7 µM | 58.4 µM | > 100 µM | 51 µM | > 100 µM | > 100 µM | 63.1 µM | > 100 µM | – | > 100 µM | 70.9 µM | > 100 µM | 44.3 µM
Cc1ccc(-c2n[nH]c(=O)n2/N=C\c2ccccc2O)cc1 | > 100 µM | > 100 µM | > 100 µM | > 100 µM | > 100 µM | > 100 µM | > 100 µM | > 100 µM | > 100 µM | > 100 µM | – | > 100 µM | – | > 100 µM | > 100 µM
COc1cccc(OC)c1C1ON=C(c2ccccc2)N1C12CC3CC(CC(C3)C1)C2 (stereo unspecified) | 88.4 µM | – | > 100 µM | > 100 µM | > 100 µM | > 100 µM | > 100 µM | > 100 µM | > 100 µM | > 100 µM | > 100 µM | > 100 µM | > 100 µM | > 100 µM | 11.9 µM
CC(=O)N1C=Cc2c(c(C)c3c([nH]c4ccccc43)c2C)C1 | 20.8 µM | > 100 µM | 27.6 µM | 29.7 µM | 25.4 µM | – | 28.7 µM | 17.5 µM | – | 20.3 µM | 28.3 µM | 14.6 µM | 16.8 µM | 27 µM | 37.4 µM
O=C(CCC(=O)c1ccsc1)c1ccsc1 | > 100 µM | – | > 100 µM | > 100 µM | > 100 µM | > 100 µM | > 100 µM | > 100 µM | > 100 µM | > 100 µM | > 100 µM | > 100 µM | > 100 µM | > 100 µM | > 100 µM
CCCc1nnc2sc(COc3ccc(OCc4nn5c(CCC)nnc5s4)c(Cl)c3)nn12 | 80.6 µM | – | 45.4 µM | > 100 µM | 60 µM | 64.1 µM | > 100 µM | > 100 µM | 73.7 µM | > 100 µM | 74.5 µM | > 100 µM | > 100 µM | > 100 µM | > 100 µM
N#CC(C#N)=c1c(=O)c2c3ccccc3cc3cccc1c32 | > 100 µM | > 100 µM | > 100 µM | – | > 100 µM | > 100 µM | > 100 µM | > 100 µM | > 100 µM | > 100 µM | > 100 µM | > 100 µM | > 100 µM | > 100 µM | –
C=CCN1C(=O)CC2[C@@H]3CCc4cc(O)ccc4C3CC[C@]2(C)C1=O (stereo partly specified) | > 10 µM | > 10 µM | > 10 µM | – | > 10 µM | > 10 µM | > 10 µM | > 10 µM | – | > 10 µM | > 10 µM | > 10 µM | > 10 µM | > 10 µM | > 10 µM
Cc1ccc(S(=O)(=O)n2cc(/C=C/C#N)c(-c3cn(S(=O)(=O)c4ccc(C)cc4)cc3-c3cn(S(=O)(=O)c4ccc(C)cc4)cc3/C=C/C#N)c2)cc1 | > 100 µM | – | > 100 µM | > 100 µM | > 100 µM | – | > 100 µM | > 100 µM | > 100 µM | > 100 µM | > 100 µM | > 100 µM | > 100 µM | > 100 µM | –
CCCCNC(=O)OCCN=c1c2ccccc2ccc2ccccc12 | > 100 µM | > 100 µM | > 100 µM | – | > 100 µM | > 100 µM | > 100 µM | > 100 µM | > 100 µM | > 100 µM | – | > 100 µM | > 100 µM | > 100 µM | > 100 µM
CN(C)c1cccc(-c2cc(=S)c3cc4c(cc3[nH]2)OCO4)c1 | > 100 µM | > 100 µM | 11.8 µM | 67.7 µM | > 100 µM | > 77.7 µM | > 100 µM | > 100 µM | – | > 100 µM | > 100 µM | > 100 µM | > 100 µM | > 100 µM | 43.3 µM
Clc1ccc(OCC2NC3CCC2CC3)cn1 (stereo unspecified) | > 100 µM | 77 µM | 33.5 µM | 40.1 µM | > 100 µM | 32.5 µM | 77.1 µM | 67.1 µM | > 100 µM | 96.6 µM | – | > 100 µM | 33.4 µM | > 100 µM | > 100 µM
CCOC(=O)c1nc2ccccc2nc1Oc1cc(OC)cc(OC)c1 | > 100 µM | > 100 µM | > 100 µM | > 100 µM | – | – | > 100 µM | > 100 µM | – | > 100 µM | > 100 µM | > 100 µM | > 100 µM | > 100 µM | > 100 µM
Clc1ccc(/C=C/c2nc(-c3ccccc3)cn3c2nc2ccccc23)cc1Cl | > 100 µM | 48 µM | > 100 µM | – | – | > 100 µM | > 100 µM | > 100 µM | – | > 100 µM | > 100 µM | > 100 µM | > 100 µM | > 100 µM | > 100 µM
COc1ccc(N2C(=O)c3cc([N+](=O)[O-])cnc3S2(=O)=O)cc1 | > 100 µM | > 100 µM | > 100 µM | > 100 µM | – | > 100 µM | > 100 µM | > 100 µM | > 100 µM | > 100 µM | – | > 100 µM | > 100 µM | > 100 µM | > 100 µM
COc1ccc2c(O)c(Oc3ccc(Cl)cc3)c(=O)oc2c1 | > 100 µM | > 100 µM | > 100 µM | > 100 µM | > 100 µM | > 100 µM | > 100 µM | > 100 µM | > 100 µM | > 100 µM | > 100 µM | > 100 µM | > 100 µM | – | > 100 µM
CN1CCN(c2cc3[nH]c4cc(O)cc(O)c4c(=O)c3cc2N)CC1 | 44 µM | 32.9 µM | 69 µM | 63.5 µM | 87 µM | 45.7 µM | > 100 µM | > 100 µM | 45.1 µM | 3.43 µM | 73.2 µM | 95.1 µM | 41.5 µM | – | 49 µM
Cc1ccc2c(c1C)C(=O)C1(C2)Cc2ccc3c(c2C1=O)CCC3 (stereo unspecified) | > 100 µM | > 100 µM | > 100 µM | > 100 µM | > 100 µM | > 100 µM | > 100 µM | – | > 100 µM | > 100 µM | > 100 µM | > 100 µM | – | > 100 µM | > 100 µM
O=C1CSC(c2c[nH]c3ccccc23)N1c1cccc(Cl)c1 (stereo unspecified) | > 100 µM | > 100 µM | > 100 µM | – | – | > 100 µM | > 100 µM | > 100 µM | > 100 µM | > 100 µM | > 100 µM | 96.6 µM | – | > 100 µM | > 100 µM

From PubChem BioAssay (NCI)
